Drawing on patent US11174260B2, “Compounds and methods for the treatment of parasitic diseases” (THE BROAD INSTITUTE, INC., priority 2017, dated 2021), this text covers EC50 for 22 compounds.

Molecules are shown by their SMILES.

The subject of the first experiment is P. falciparum Dd2. Kind of experiment: In vitro P. falciparum blood-stage culture and assay. The experiment is classed as cell-based. The settings on record: 72 h incubation, SYBR Green I readout, read-out: Pf Dd2. As for the experimental part: Strains of P. falciparum (Dd2, 3D7, D6, K1, NF54, V1/3, HB3, 7G8, FCB and TM90C2B) were obtained from the Malaria Research and Reference Reagent Resource Center (MR4). P. falciparum isolates were maintained with O-positive human blood in an atmosphere of 93% N2, 4% CO2, 3% O2 at 37° C. in complete culturing medium (10.4 g/L RPMI 1640, 5.94 g/L HEPES, 5 g/L albumax II, 50 mg/L hypoxanthine, 2.1 g/L sodium bicarbonate, 10% human serum and 43 mg/L gentamicin). Parasites were cultured in medium until parasitaemia reached 3-8%. Parasitaemia was determined by checking at least 500 red blood cells from a Giemsa-stained blood smear. For the compound screening, a parasite dilution at 2.0% parasitaemia and 2.0% haematocrit was created with medium. 25 μl of medium was dispensed into 384-well black, clear-bottom plates and 100 nl of each compound in DMSO was transferred into assay plates along with the control compound (mefloquine). Next, 25 μl of the parasite suspension in medium was dispensed into the assay plates giving a final parasitaemia of 1% and a final haematocrit of 1%. The assay plates were incubated for 72 h at 37° C. 10 μl of detection reagent consisting of 10×SYBR Green I (Invitrogen; supplied in 10,000× concentration) in lysis buffer (20 mM Tris-HCl, 5 mM EDTA, 0.16% (w/v) Saponin, 1.6% (v/v) Triton X-100) was dispensed into the assay plates. For optimal staining, the assay plates were left at room temperature for 24 h in the dark. The assay plates were read with 505 dichroic mirrors with 485 nm excitation and 530 nm emission settings in an Envision (PerkinElmer).
As for `COc1ccc(NC(=O)N2CCC(O)CN3[C@H](CN(C)C)[C@H](c4ccc(C#Cc5ccccc5)cc4)[C@@H]3C2)cc1` (single isomer, unassigned) [Example E16], the EC50 was greater than 250 nM.

`COc1ccc(NC(=O)N2CCC(O)CN3[C@H](CN(C)C)[C@H](c4ccc(C#Cc5ccccc5)cc4)[C@@H]3C2)cc1` (single isomer, unassigned) [Example E17]: the EC50 is less than 50 nM.

Staying with this experiment, now noted: Plasmodium falciparum, DD2, 72 h, 72 h incubation, SYBR Green I readout, read-out: Pf Dd2.
On to `CN(C)C[C@@H]1[C@H](c2ccc(C#Cc3ccccc3)cc2)[C@@H]2CN(C(=O)Nc3ccc(OC4CC4)cc3)C[C@@H](O)[C@@H](O)CN12` (single isomer, unassigned) [Example E1], for which the EC50 was less than 50 nM. On the same count and under the same terms, the same measure for `COc1ccc(NC(=O)N2C[C@@H](OC)[C@@H](OC)CN3[C@H](CN(C)C)[C@H](c4ccc(C#Cc5ccccc5)cc4)[C@@H]3C2)cc1` [Example E2, (3S,4R,8R,9S,10S)-10-((dimethylamino)methyl)-3,4-dimethoxy-N-(4-methoxyphenyl)-9-(4-(phenylethynyl)phenyl)-1,6-diazabicyclo[6.2.0]decane-6-carboxamide]: less than 50 nM; for `COc1ccc(NC(=O)N2C[C@@H](N(C)C)CCN3[C@H](CO)[C@H](c4ccc(C#Cc5ccccc5)cc4)[C@@H]3C2)cc1` [Example E3, (4S,8R,9R,10S)-4-(dimethylamino)-10-(hydroxymethyl)-N-(4-methoxyphenyl)-9-(4-(phenylethynyl)phenyl)-1,6-diazabicyclo[6.2.0]decane-6-carboxamide]: greater than 250 nM; for `COc1ccc(NC(=O)N2C[C@@H](O)[C@@H](O)CN3[C@H](CN(C)C)[C@H](c4ccc(C#Cc5ccccc5)cc4)[C@@H]3C2)cc1` [Example E5, (3S,4R,8R,9S,10S)-10-((dimethylamino)methyl)-3,4-dihydroxy-N-(4-methoxyphenyl)-9-(4-(phenylethynyl)phenyl)-1,6-diazabicyclo[6.2.0]decane-6-carboxamide]: less than 50 nM.

For the compound `COc1ccc(NC(=O)N2C[C@@H](O)[C@@H](O)CN3[C@H](CN(C)C)[C@H](c4ccc(C#Cc5ccccc5F)cc4)[C@@H]3C2)cc1` [Example E7, (3S,4R,8R,9S,10S)-10-[(dimethylamino)methyl]-9-[4-[2-(2-fluorophenyl)ethynyl]phenyl]-3,4-dihydroxy-N-(4-methoxyphenyl)-1,6-diazabicyclo[6.2.0]decane-6-carboxamide], the EC50 was less than 50 nM. `COc1ccc(NC(=O)N2C[C@H](O)[C@H](O)CN3[C@H](CN(C)C)[C@H](c4ccc(C#Cc5ccccc5F)cc4)[C@@H]3C2)cc1` [Example E8, (3R,4S,8R,9S,10S)-10-[(dimethylamino)methyl]-9-[4-[2-(2-fluorophenyl)ethynyl]phenyl]-3,4-dihydroxy-N-(4-methoxyphenyl)-1,6-diazabicyclo[6.2.0]decane-6-carboxamide]: the EC50 lay in the range of 50 to 250 nM. Same read-out and setting: in the case of `CCN(CC)C[C@@H]1[C@H](c2ccc(C#Cc3ccccc3)cc2)[C@@H]2CN(C(=O)Nc3ccc(OC)cc3)C[C@@H](O)[C@@H](O)CN12` [Example E9, (3S,4R,8R,9S,10S)-10-(diethylaminomethyl)-3,4-dihydroxy-N-(4-methoxyphenyl)-9-[4-(2-phenylethynyl)phenyl]-1,6-diazabicyclo[6.2.0]decane-6-carboxamide] it was less than 50 nM; in that of `COc1ccc(NC(=O)N2C[C@@H](O)[C@@H](O)CN3[C@H](CN(C)C(C)C)[C@H](c4ccc(C#Cc5ccccc5)cc4)[C@@H]3C2)cc1` [Example E10, (3S,4R,8R,9S,10S)-3,4-dihydroxy-10-[[isopropyl(methyl)amino]methyl]-N-(4-methoxyphenyl)-9-[4-(2-phenylethynyl)phenyl]-1,6-diazabicyclo[6.2.0]decane-6-carboxamide], less than 50 nM.

Turning to `COc1ccc(NC(=O)N2C[C@H](O)[C@H](O)CN3[C@H](CN(C)C(C)C)[C@H](c4ccc(C#Cc5ccccc5)cc4)[C@@H]3C2)cc1` [Example E11, (3R,4S,8R,9S,10S)-3,4-dihydroxy-10-[[isopropyl(methyl)amino]methyl]-N-(4-methoxyphenyl)-9-[4-(2-phenylethynyl)phenyl]-1,6-diazabicyclo[6.2.0]decane-6-carboxamide], the EC50 is 50 to 250 nM.

Turning to `COc1ccc(NC(=O)N2C[C@@H](O)[C@@H](O)CN3[C@H](CN(C)C)[C@H](c4ccc(C#Cc5cccc(F)c5F)cc4)[C@@H]3C2)cc1` [Example E12, (3S,4R,8R,9S,10S)-9-(4-((2,3-difluorophenyl)ethynyl)phenyl)-10-((dimethylamino)methyl)-3,4-dihydroxy-N-(4-methoxyphenyl)-1,6-diazabicyclo[6.2.0]decane-6-carboxamide], the EC50 lay within 50 to 250 nM.

For the compound `COc1ccc(NC(=O)N2C[C@H](O)[C@H](O)CN3[C@H](CN(C)C)[C@H](c4ccc(C#Cc5cccc(F)c5F)cc4)[C@@H]3C2)cc1` [Example E13, (3R,4S,8R,9S,10S)-9-[4-[2-(2,3-difluorophenyl)ethynyl]phenyl]-10-[(dimethylamino)methyl]-3,4-dihydroxy-N-(4-methoxyphenyl)-1,6-diazabicyclo[6.2.0]decane-6-carboxamide], the EC50 is less than 50 nM.

On to `COc1ccc(NC(=O)N2C[C@H]3OCCO[C@H]3CN3[C@H](CN(C)C)[C@H](c4ccc(C#Cc5ccccc5)cc4)[C@@H]3C2)cc1` [Example E14, (4aR,7aR,8S,9S,11aS)-9-((dimethylamino)methyl)-N-(4-methoxyphenyl)-8-(4-(phenylethynyl)phenyl)octahydro-2H-azeto[1,2-a][1,4]dioxino[2,3-f][1,4]diazocine-6(3H)-carboxamide], for which the EC50 was less than 50 nM. On the same count and under the same terms, the same measure for `COc1ccc(NC(=O)N2C[C@@H](O)[C@@H](O)CN3[C@H](CO)[C@H](c4ccc(C#Cc5cccnc5)cc4)[C@@H]3C2)cc1` [Example E22, (3S,4R,8R,9R,10S)-3,4-dihydroxy-10-(hydroxymethyl)-N-(4-methoxyphenyl)-9-(4-(pyridin-3-ylethynyl)phenyl)-1,6-diazabicyclo[6.2.0]decane-6-carboxamide]: greater than 250 nM; for `COc1ccc(NC(=O)N2C[C@H](O)[C@H](O)CN3[C@H](CO)[C@H](c4ccc(C#Cc5cccnc5)cc4)[C@@H]3C2)cc1` [Example E23, (3R,4S,8R,9R,10S)-3,4-dihydroxy-10-(hydroxymethyl)-N-(4-methoxyphenyl)-9-(4-(pyridin-3-ylethynyl)phenyl)-1,6-diazabicyclo[6.2.0]decane-6-carboxamide]: 50 to 250 nM; for `COc1ccc(NC(=O)N2C[C@@H](O)CCN3[C@H](CN(C)C)[C@H](c4ccc(C#Cc5ccccc5)cc4)[C@@H]3C2)cc1` [Example E24, (4S,8R,9S,10S)-10-[(dimethylamino)methyl]-4-hydroxy-N-(4-methoxyphenyl)-9-[4-(2-phenylethynyl)phenyl]-1,6-diazabicyclo[6.2.0]decane-6-carboxamide]: greater than 250 nM. For `COc1ccc(NC(=O)N2CCC(CN(C)C)CN3[C@H](CN(C)C)[C@H](c4ccc(C#Cc5ccccc5)cc4)[C@@H]3C2)cc1` (stereo partly drawn) [Example E25, (8R,9S,10S)-3,10-bis[(dimethylamino)methyl]-N-(4-methoxyphenyl)-9-[4-(2-phenylethynyl)phenyl]-1,6-diazabicyclo[6.2.0]decane-6-carboxamide], the EC50 fell in the range of 50 to 250 nM. On the same count and under the same terms, the same measure for `COc1ccc(NC(=O)N2CC[C@@H](N(C)C)CN3[C@H](CO)[C@H](c4ccc(C#Cc5ccccc5)cc4)[C@@H]3C2)cc1` [Example E28, (3R,8R,9R,10S)-3-(dimethylamino)-10-(hydroxymethyl)-N-(4-methoxyphenyl)-9-[4-(2-phenylethynyl)phenyl]-1,6-diazabicyclo[6.2.0]decane-6-carboxamide]: 50 to 250 nM; for `COc1ccc(NC(=O)N2CC[C@H](N(C)C)CN3[C@H](CO)[C@H](c4ccc(C#Cc5ccccc5)cc4)[C@@H]3C2)cc1` [Example E29, (3S,8R,9R,10S)-3-(dimethylamino)-10-(hydroxymethyl)-N-(4-methoxyphenyl)-9-(4-(phenylethynyl)phenyl)-1,6-diazabicyclo[6.2.0]decane-6-carboxamide]: 50 to 250 nM. The same measure, in the same setting: the same measure for `COc1ccc(NC(=O)N2C[C@H](N(C)C)CCN3[C@H](CO)[C@H](c4ccc(C#Cc5ccccc5)cc4)[C@@H]3C2)cc1` [Example E30, (4R,8R,9R,10S)-4-(dimethylamino)-10-(hydroxymethyl)-N-(4-methoxyphenyl)-9-(4-(phenylethynyl)phenyl)-1,6-diazabicyclo[6.2.0]decane-6-carboxamide]: greater than 250 nM; for `COc1ccc(NC(=O)N2CC(CN(C)C)CCN3[C@H](CO)[C@H](c4ccc(C#Cc5ccccc5)cc4)[C@@H]3C2)cc1` (stereo partly drawn) [Example E31, (8R,9R,10S)-4-((dimethylamino)methyl)-10-(hydroxymethyl)-N-(4-methoxyphenyl)-9-(4-(phenylethynyl)phenyl)-1,6-diazabicyclo[6.2.0]decane-6-carboxamide]: greater than 250 nM.
